Among the test systems are 786-0; A498; ACHN; HOP-92; IGROV-1; LOX IMVI; M14; MDA-MB-231; NCI-H226; NCI-H23; NCI-H460; NCI-H522; OVCAR-5; OVCAR-8; RXF 393; SF-268; SNB-75; SW-620; U-251; UACC-257.
Common to all, as to assay: inhibition of tumour cell growth, NCI panel, 48 h

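In this assay, cells in 96-well plates receive the compound at five concentrations for 48 hours. Endpoints are linearly interpolated between the surrounding concentrations. GI50 marks 50% less growth.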 Activity calls are given as the source filed them. No stated cut-off is given here; in the data, active = GI50 up to about 1.1 µM and inactive = higher.

Results on seven molecules are retold here after ChEMBL document CHEMBL1201862, “PubChem BioAssay data set” (2004).

As for `Cc1ccc(Nc2n[nH]c(NS(=O)(=O)c3cc(C)c(Cl)cc3S)n2)cc1`, the GI50 in the assay on 786-0, in the assay on A498, with ACHN, in the assay with HOP-92, with IGROV-1 and in the assay on LOX IMVI was > 100 µM (inactive) in each case. Also, the GI50 in the assay with M14, in the assay on MDA-MB-231, in the assay on NCI-H226, with NCI-H23, in the assay with NCI-H460 and with NCI-H522 was > 100 µM (inactive) in each case. Also, the GI50 in the assay with OVCAR-5, in the assay on OVCAR-8, in the assay with RXF 393, with SF-268, with SNB-75 and with SW-620 was > 100 µM (inactive) in each case. The GI50 with U-251 and in the assay on UACC-257 was > 100 µM (inactive) each time.

As to `CCOC(=O)/C=C(/C(=O)OCC)n1ccc(=O)n(CC(=O)OCC)c1=O`, the GI50 in the assay on 786-0 is 0.412 µM (active); in the assay with A498 it was 14.8 µM (inactive); with ACHN it was 0.57 µM (active); in the assay on HOP-92, 0.251 µM (active); in the assay on IGROV-1 it was 1.61 µM (inactive); in the assay with LOX IMVI, 0.869 µM (active). For the same molecule, the GI50 with M14 is 1.37 µM (inactive); with MDA-MB-231 it was 2.04 µM (inactive); in the assay with NCI-H226 it was 2.22 µM (inactive); in the assay on NCI-H23 it was 1.78 µM (inactive); in the assay on NCI-H460, 3.89 µM (inactive); in the assay with NCI-H522, 0.196 µM (active). Besides, the GI50 is 1.67 µM (inactive) in the assay on OVCAR-5; 2.39 µM (inactive) with OVCAR-8; 1.15 µM (inactive) in the assay on RXF 393; 3.11 µM (inactive) with SF-268; 2.48 µM (inactive) in the assay on SNB-75; 0.265 µM (active) with SW-620. Further, the GI50 was 2.56 µM (inactive) with U-251 and 2.44 µM (inactive) with UACC-257.

`Nc1ccc(C(=O)Nn2c(-c3ccccc3)nc3ccccc3c2=O)cc1`: the GI50 in the assay on 786-0 is > 100 µM (inactive); with A498, 32.3 µM (inactive); in the assay on ACHN, > 100 µM (inactive); in the assay on HOP-92 it was > 100 µM (inactive); with IGROV-1, > 100 µM (inactive); in the assay on LOX IMVI, > 100 µM (inactive). Further, the GI50 in the assay on M14, with MDA-MB-231, in the assay with NCI-H226, with NCI-H23, in the assay with NCI-H460 and in the assay with NCI-H522 was > 100 µM (inactive) each time. In addition, the GI50 with OVCAR-5 was > 100 µM (inactive); in the assay with OVCAR-8 it was > 100 µM (inactive); in the assay with RXF 393 it was > 100 µM (inactive); in the assay with SF-268, > 100 µM (inactive); in the assay on SNB-75 it was 89.7 µM (inactive); in the assay on SW-620, > 100 µM (inactive). Further, the GI50 in the assay with U-251 and in the assay with UACC-257 was > 100 µM (inactive) throughout.

For `CC(=O)NCCCCN(CCCNC(C)=O)C(=O)OCc1ccccc1`, the GI50 in the assay with 786-0, in the assay on A498, in the assay on ACHN, in the assay on HOP-92, in the assay on IGROV-1 and in the assay on LOX IMVI was > 100 µM (inactive) in each case. The GI50 with M14, in the assay on MDA-MB-231, in the assay on NCI-H226, with NCI-H23, in the assay with NCI-H460 and in the assay on NCI-H522 was > 100 µM (inactive) each time. Also, the GI50 with OVCAR-5 is > 100 µM (inactive); with OVCAR-8 it was > 100 µM (inactive); in the assay with RXF 393, > 100 µM (inactive); with SF-268, > 100 µM (inactive); in the assay with SNB-75, 19.1 µM (inactive); in the assay on SW-620, > 100 µM (inactive). Also, the GI50 with U-251 and in the assay with UACC-257 was > 100 µM (inactive) each time.

`CC(C)N1CCN(c2ccncc2S(=O)(=O)N2CCCCC2)CC1`: the GI50 in the assay with 786-0, in the assay with A498, in the assay on ACHN, with HOP-92, with IGROV-1 and in the assay on LOX IMVI was > 100 µM (inactive) in each case. Moreover, the GI50 with M14, in the assay on MDA-MB-231, in the assay on NCI-H226, with NCI-H23, in the assay on NCI-H460 and with NCI-H522 was > 100 µM (inactive) each time. The GI50 in the assay with OVCAR-5, in the assay on OVCAR-8, in the assay on RXF 393, in the assay with SF-268, in the assay with SNB-75 and in the assay on SW-620 was > 100 µM (inactive) each time. Moreover, the GI50 in the assay with U-251 and with UACC-257 was > 100 µM (inactive) throughout.

Regarding `O=P1(C(O)/C=C/c2ccccc2)N(Cc2ccccc2)[C@@H]2CCCC[C@H]2N1Cc1ccccc1` (stereo not given in full), the GI50 in the assay with 786-0 is 5.94 µM (inactive); in the assay with A498, 3.02 µM (inactive); in the assay on ACHN it was 3.94 µM (inactive); in the assay on HOP-92 it was 2.7 µM (inactive); with IGROV-1, 3.41 µM (inactive); in the assay with LOX IMVI, 3.8 µM (inactive). For the same molecule, the GI50 in the assay with M14 is 4.39 µM (inactive); in the assay with MDA-MB-231 it was 10.8 µM (inactive); in the assay on NCI-H226 it was 4.51 µM (inactive); in the assay with NCI-H23 it was 4.26 µM (inactive); in the assay with NCI-H460 it was 3.55 µM (inactive); with NCI-H522, 2.42 µM (inactive). Besides, the GI50 in the assay on OVCAR-5 was 10.6 µM (inactive); in the assay with OVCAR-8, 3.74 µM (inactive); with RXF 393 it was 7.29 µM (inactive); with SF-268 it was 4.05 µM (inactive); in the assay with SNB-75 it was 12 µM (inactive); in the assay on SW-620, 6.87 µM (inactive). The figures for the GI50 in the assay with U-251 and in the assay with UACC-257 were 4.21 µM (inactive) and 4.32 µM (inactive), respectively.

Consider `CC1=C2C(=C[C@@](C)(CO)[C@@H]2O)C(=O)[C@](C)(O)C12CC2` [ILLUDIN], for which the GI50 with 786-0 is 0.00353 µM (active); in the assay with A498, 0.0104 µM (active); in the assay on ACHN it was 0.00849 µM (active); in the assay with HOP-92 it was 0.0232 µM (active); in the assay with IGROV-1 it was 0.0155 µM (active); in the assay on LOX IMVI it was 0.00313 µM (active). Moreover, the GI50 in the assay with M14 was 0.00891 µM (active); with MDA-MB-231, 0.0213 µM (active); in the assay on NCI-H226, 0.0231 µM (active); in the assay with NCI-H23 it was 0.0052 µM (active); in the assay on NCI-H460, 0.00147 µM (active); in the assay with NCI-H522, 0.00352 µM (active). In addition, the GI50 was 0.0106 µM (active) in the assay on OVCAR-5; 0.0133 µM (active) with OVCAR-8; 0.00664 µM (active) in the assay with RXF 393; 0.00293 µM (active) in the assay on SF-268; 0.0138 µM (active) with SNB-75; 0.00305 µM (active) in the assay on SW-620. Moreover, the GI50 is 0.00213 µM (active) in the assay with U-251 and 0.0145 µM (active) with UACC-257.
